Series [1] can be described thus: Plasma concentration in mouse model of systemic lupus erythematosus after oral administration. Conditions: NZBWF1 mice, 5 mg/kg orally. In kind it is in vivo. As to the method: Plasma concentrations of B2-24-4-5A·HCOOH were determined after oral administration of B2-24-4-5A·HCOOH in a mouse model of systemic lupus erythematosus (NZBWF1, 20 weeks old, female). 5 mg/kg of B2-24-4-5A·HCOOH was administered orally to NZBWF1 mice. After 0.5, 1, 2, 4, 8, 16, or 24 hours, blood was collected from NZBWF1 mice to prepare plasma. The concentration of B2-24-4-5A·HCOOH in the plasma was determined by LC/MS/MS.

Series [2] is described as follows: Plasma concentration in normal mice after oral administration. In kind it is in vivo, mice (C57BL/6N). The note with it: C57BL/6N mice, 1 mg orally. As to the method: Plasma concentrations of CB-7 or B2-24-4-5A·HCOOH were measured in normal mice (C57BL/6N, 11 weeks old, female) after oral administration. 1 mg of CB-7 or B2-24-4-5A·HCOOH was administered orally to mice C57BL/6N. After 0.5, 1, 2, 4, or 8 hours, blood was collected from mice C57BL/6N to prepare plasma. The concentration of CB-7 or B2-24-4-5A·HCOOH in the plasma was measured by LC/MS/MS.

In series [3] the test system is systemic lupus erythematosus model mice (NZBWF1). Briefly: Therapeutic effect in mouse model of spontaneous systemic lupus erythematosus. In kind it is in vivo. The method, then:
Systemic lupus erythematosus model mice (NZBWF1, 20 weeks old, female, n=55) were divided into saline-administered group (control, n=25), B2-24-4-5A·HCOOH-administered group (n=10), B2-24-4·HCOOH-administered group (n=5) and HCQ-administered group (n=15). The saline-administered group received saline (100 l) orally once a day, every day; the B2-24-4-5A·HCOOH-administered group received 10 mg/kg of B2-24-4-5A·HCOOH (100 l) orally once a day, every day; the B2-24-4·HCOOH-administered group received 10 mg/kg of B2-24-4·HCOOH (100 l) orally once a day, every day; the HCQ-administered group received 10 mg/kg of HCQ (100 l) orally once a day, every day. Fifteen weeks after the start of treatment, urine was collected from surviving mice in the saline-administered group (control, n=17), B2-24-4-5A·HCOOH-administered group (n=10), B2-24-4·HCOOH-administered group (n=5), and HCQ-administered group (n=12), and the mice were euthanized. After euthanasia, blood was drawn from the abdominal aorta of the mice, and the kidneys and spleen were removed.
Mice that died of natural causes during the 15-week period from the start of treatment were counted as deaths, and survival analysis was performed using the Kaplan Meier method. Blood collected from the abdominal aorta of each mouse, excluding the deceased cases, was centrifuged and serum was prepared. Determination of urea nitrogen and creatinine levels in serum was entrusted to Oriental Yeast Co. Albumin levels in urine were determined by ELISA (used kit: Levis Urinary Albumin-Mouse (S-type) (trade name) (Fujifilm Wako Shibayagi Corporation)). The removed kidneys were fixed with 4% (w/v) paraformaldehyde, and immunohistochemical staining was entrusted to Morpho Technology, Inc. In PAS-stained kidney tissue sections, histological findings of 100 glomeruli were evaluated. For increased cells and substrate in the mesangial area, endothelial cell swelling and cellular infiltration of the capillary lumen (intratubular proliferation), and glomeruli with inflammatory crescents (extratubular proliferation), each of the 100 glomeruli was assigned a grade from grade 0 to grade 2 according to severity and scored on a 6-point scale.
FIG. 10F is a photograph showing C3 deposition in the glomeruli of a mouse (#1) in the saline-administered group, a mouse (#10) in the B2-24-4-5A·HCOOH-administered group, a mouse (#4) in the B2-24-4·HCOOH-administered group and a mouse (#14) in the HCQ-administered group. […] In the renal tissue sections of a mouse (#1) in the saline-administered group, findings of active glomerulonephritis such as diffuse mesangial and intratubular proliferation were observed. […] The plots in FIGS. 10B, 10C, and 10D show the data for each individual, each bold line is the mean of the group data, and each error bar standard error. Scale bars in FIGS. 10E and 10F represent 100 μm. […]

Where [4] appears, read: female, mouse, plasma, po, LC/MS/MS.

Several values for one entry are separate records, joined by “and”; a condition that tells them apart may be missing. Equal values may be shown once.

Consider `C=C(C)[C@@H]1CC[C@]2(COC(=O)C2)C[C@H]1c1ccc(CN2CCNCC2)cc1` [B2-24-4-5A·HCOOH], for which the “Plasma level after 8 hours” value in series [1] is recorded as “near-bottom level”. Moreover, the concentration at 0.5 h in series [1] (setting [4]) is 88.1 ng/mL. Also, the “Persistence in plasma compared to CB-7” value in series [2] is “remains in plasma for a longer time than CB-7”. In series [2] (setting [4]), this compound displayed a concentration at 8 h of roughly 500 ng/mL. Besides, the “Surviving mice fifteen weeks after the start of treatment” value in series [3] (10 mg/kg orally once a day, groups started with n=10, n=5, n=15 (HCQ)) was found to be 10. Further, in series [3] (per mouse, histological score on a 6-point scale), the score was 0.23 and 0.15 and 0.42 and 0.09 (2×) and 0.24 and 0.03 and 0.04 and 0.14 and 0.52. Moreover, the “Inside 0” value in series [3] (per mouse, of 100 glomeruli, endothelial cell swelling and cellular infiltration of capillary lumen, Grade 0) was 99 (2×) and 100 (3×) and 78 and 96 and 94 and 97 and 74. In series [3] (per mouse, of 100 glomeruli, endothelial cell swelling and cellular infiltration of capillary lumen, Grade 1), the “Inside 1” value was 1 (2×) and 0 (3×) and 18 and 4 and 6 and 3 and 20. Further, the “Inside 2” value in series [3] (per mouse, of 100 glomeruli, endothelial cell swelling and cellular infiltration of capillary lumen, Grade 2) was 0 (8×) and 4 and 6. In series [3] (per mouse, of 100 glomeruli, glomerulus with semilunar, Grade 0), the “Outside 0” value is 99 and 100 (9×). In addition, in series [3] (per mouse, of 100 glomeruli, glomerulus with semilunar, Grade 1), the “Outside 1” value was 1 and 0 (9×). Moreover, the “Outside 2” value in series [3] (per mouse, of 100 glomeruli, glomerulus with semilunar, Grade 2) is recorded as 0. For the same compound, the Mes0 in series [3] (per mouse, of 100 glomeruli, increase in cells and substrates in the mesangium region, Grade 0: None, 10 mg/kg orally, 15 weeks, 10 mg/kg) is 80 (3×) and 86 (2×) and 92 (2×) and 97 and 96 and 94. Further, the Mes1 in series [3] (per mouse, of 100 glomeruli, mesangium region, Grade 1: Moderate or lower) is 19 and 13 and 12 and 8 (2×) and 20 (2×) and 3 and 4 and 6. Further, in series [3] (per mouse, of 100 glomeruli, mesangium region, Grade 2: Moderate or higher), the Mes2 was 1 (2×) and 2 and 0 (7×).
